Several values for one entry are separate records, joined by “and”; a condition that tells them apart may be missing. Identical values can stand only once. Counter-ions that a name gives are not always drawn. Like-named read-outs stand apart in the source and are kept apart here.

In test [1] the test system is erythroid progenitor cells (EPCs). Put plainly: Fetal hemoglobin (HbF) ELISA in day 7 erythroid progenitor cells.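 Note: for fetal hemoglobin induction normalized to vehicle-treated cells.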 In kind it is cell-based, human. The note with it: Homo sapiens, Erythroid progenitor cell, HbF ELISA, day 7 EPCs, 5 days; read-out: EPC ELISA (pEC50 category) (converted). In short, it runs like this: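 Day 7 EPCs from human bone marrow CD34+ cells were plated at 1,000 cells/well in media with 3 U/mL rhEPO. They were exposed to a 22-point dilution ([…]) for 5 days at 37 °C. Lysate HbF was measured by sandwich ELISA (OD450) and normalized to DMSO control wells.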

Test [2] deals with DNMT1 (Homo sapiens, UniProt P26358). Put plainly: DNMT1 biochemical activity, breaklight assay and/or SPA assay.
Setting [3] is: binned activity in either the breaklight or the SPA assay.
The mark [4] stands for this setting: binned activity in either the breaklight or the SPA assay, read-out: DNMT1 BioChemical (pIC50 category) (converted).
Setting [5] is: breaklight assay and/or SPA assay, repeated experimental runs, read-out: average pIC50 against DNMT1 (converted).

Sequence of DNMT1 (P26358 whole entry, looked up): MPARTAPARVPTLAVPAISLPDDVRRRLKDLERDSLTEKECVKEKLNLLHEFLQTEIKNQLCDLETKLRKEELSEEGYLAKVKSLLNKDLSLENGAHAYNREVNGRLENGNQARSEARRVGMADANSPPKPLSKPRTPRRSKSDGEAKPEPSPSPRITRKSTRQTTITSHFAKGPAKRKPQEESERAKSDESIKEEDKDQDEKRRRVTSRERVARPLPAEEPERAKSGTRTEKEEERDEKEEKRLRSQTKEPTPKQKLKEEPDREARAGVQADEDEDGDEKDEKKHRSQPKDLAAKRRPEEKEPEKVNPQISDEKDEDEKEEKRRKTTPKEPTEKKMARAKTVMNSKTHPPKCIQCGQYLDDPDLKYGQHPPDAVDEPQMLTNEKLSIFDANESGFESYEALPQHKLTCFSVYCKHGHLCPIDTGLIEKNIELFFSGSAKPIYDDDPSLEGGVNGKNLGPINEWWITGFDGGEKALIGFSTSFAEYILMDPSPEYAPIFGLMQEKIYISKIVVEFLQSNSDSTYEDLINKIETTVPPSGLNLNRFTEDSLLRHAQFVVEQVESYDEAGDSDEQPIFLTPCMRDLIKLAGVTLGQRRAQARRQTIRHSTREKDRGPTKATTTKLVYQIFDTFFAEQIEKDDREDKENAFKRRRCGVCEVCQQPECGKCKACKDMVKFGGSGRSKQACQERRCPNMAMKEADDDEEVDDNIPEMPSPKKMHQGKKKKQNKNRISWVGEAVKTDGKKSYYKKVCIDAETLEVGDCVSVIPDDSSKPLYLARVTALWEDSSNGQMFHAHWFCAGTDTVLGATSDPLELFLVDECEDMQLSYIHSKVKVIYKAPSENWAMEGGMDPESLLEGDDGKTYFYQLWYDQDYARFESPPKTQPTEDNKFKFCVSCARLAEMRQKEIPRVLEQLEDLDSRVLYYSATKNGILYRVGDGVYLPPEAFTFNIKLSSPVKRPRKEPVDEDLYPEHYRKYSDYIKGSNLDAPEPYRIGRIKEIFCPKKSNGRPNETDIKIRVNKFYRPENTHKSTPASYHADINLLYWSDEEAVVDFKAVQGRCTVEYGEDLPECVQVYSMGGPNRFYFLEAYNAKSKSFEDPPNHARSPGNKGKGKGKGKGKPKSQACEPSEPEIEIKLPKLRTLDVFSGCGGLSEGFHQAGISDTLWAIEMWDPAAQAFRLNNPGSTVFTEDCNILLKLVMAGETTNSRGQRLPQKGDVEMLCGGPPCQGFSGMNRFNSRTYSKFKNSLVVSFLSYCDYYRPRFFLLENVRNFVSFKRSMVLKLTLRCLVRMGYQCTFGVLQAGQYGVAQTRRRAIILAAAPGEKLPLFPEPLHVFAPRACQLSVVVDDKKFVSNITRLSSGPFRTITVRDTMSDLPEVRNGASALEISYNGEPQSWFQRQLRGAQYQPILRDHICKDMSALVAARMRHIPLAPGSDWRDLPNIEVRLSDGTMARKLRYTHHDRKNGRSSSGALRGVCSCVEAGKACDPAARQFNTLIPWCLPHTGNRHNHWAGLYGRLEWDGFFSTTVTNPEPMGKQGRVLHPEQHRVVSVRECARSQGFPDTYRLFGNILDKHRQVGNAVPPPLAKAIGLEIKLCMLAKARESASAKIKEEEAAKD

`CCc1c(C#N)c(SC(C(N)=O)c2ccccc2)nc(N2CCC(NCc3ccc(F)cc3)CC2)c1C#N` (centres unmarked) [Example 474, 2-((3,5-dicyano-4-ethyl-6-(4-((4-fluorobenzyl)amino)piperidin-1-yl)pyridin-2-yl)thio)-2-phenylacetamide]: the EC50 in test [1] was less than 316 nM. The “DNMT1 BioChemical (pIC50 category)” value in test [2] (setting [3]) is “D (Category D: ≥6.5)”.
`CCc1c(Cl)c(SC(C(N)=O)c2ccccc2)nc(N2CCNCC2)c1Cl` (centres unmarked) [Example 324, 2-((3,5-Dichloro-4-ethyl-6-(piperazin-1-yl)pyridin-2-yl)thio)-2-phenylacetamide]: the EC50 in test [1] is more than 31600 nM. For the same compound, the IC50 in test [2] (DNMT1 BioChemical (pIC50 category), binned activity in either the breaklight or the SPA assay) is 316 to 1000 nM; in test [2] (average pIC50 against DNMT1, breaklight assay and/or SPA assay, repeated experimental runs) it was 316 to 1000 nM and 631 nM.
`CCc1c(C#N)c(SC(CC)c2ccc(CNC(C)=O)cc2)nc(N2CCC(N(C)C)CC2)c1C#N` (centres unmarked) [Example 332, N-(4-(1-(3,5-Dicyano-6-(4-(dimethylamino)piperidin-1-yl)-4-ethylpyridin-2-ylthio)propyl)benzyl)acetamide, Trifluoroacetic Acid Salt]: in test [1], the EC50 was 316 to 1000 nM. Also, the IC50 in test [2] (setting [4]) is 1000 to 31600 nM.
Consider `CCc1c(C#N)c(SCc2ccc(CNC(=O)[C@H](C)N)cc2)nc(N2CCCN(C)CC2)c1C#N` [Example 97, (S)-2-Amino-N-(4-(((3,5-dicyano-4-ethyl-6-(4-methyl-1,4-diazepan-1-yl)pyridin-2-yl)thio)methyl)benzyl)propanamide], for which the EC50 in test [1] was more than 31600 nM. Further, the “DNMT1 BioChemical (pIC50 category)” value in test [2] (setting [3]) is listed as “D (Category D: ≥6.5)”.
As for `CCc1c(C#N)c(SC(C(N)=O)c2ccccc2)nc(N(C)CCOC(=O)[C@@H](N)C(C)C)c1C#N` (some centres unmarked) [Example 275], the EC50 in test [1] is 316 to 1000 nM. Besides, in test [2] (setting [4]), the IC50 was 316 to 1000 nM.
Take `CCc1c(C#N)c(SCc2ccc3[nH]cnc3c2)nc(N2CCCN(C)CC2)c1C#N` [Example 390, 2-(((1H-Benzo[d]imidazol-5-yl)methyl)thio)-4-ethyl-6-(4-methyl-1,4-diazepan-1-yl)pyridine-3,5-dicarbonitrile]: the EC50 in test [1] is 316 to 1000 nM. In addition, the IC50 in test [2] (setting [4]) was 316 to 1000 nM.
With `CCc1c(C#N)c(SC(C(N)=O)c2ccccc2)nc(N2CCCN(CC(=O)OC)CC2)c1C#N` (centres unmarked) [Example 108, Methyl 2-[4-(6-{[carbamoyl(phenyl)methyl]sulfanyl}-3,5-dicyano-4-ethylpyridin-2-yl)-1,4-diazepan-1-yl]acetate], the EC50 in test [1] is 316 to 1000 nM. In addition, the IC50 in test [2] (setting [4]) was 1000 to 31600 nM; in test [2] (setting [5]), not below 1000 nM.
For the compound `CCc1c(C#N)c(SC(C(N)=O)c2ccccc2)nc(N2CCC[C@H](NC3CC3)C2)c1C#N` (stereo partly drawn) [Example 684, 2-((3,5-dicyano-6-((S)-3-(cyclopropylamino)piperidin-1-yl)-4-ethylpyridin-2-yl)thio)-2-phenylacetamide], in test [1], the EC50 was less than 316 nM. In addition, in test [2] (setting [3]), the “DNMT1 BioChemical (pIC50 category)” value is “D (Category D: ≥6.5)”.
The like results for `CCc1c(C#N)c(S[C@@H](C(N)=O)c2ccccc2)nc(N2CC[C@H](NC(=O)OC(C)(C)C)[C@H](O)C2)c1C#N` [Example 537, tert-butyl ((3R,4S)-1-(6-(((R)-2-amino-2-oxo-1-phenylethyl)thio)-3,5-dicyano-4-ethylpyridin-2-yl)-3-hydroxypiperidin-4-yl)carbamate] were, in that order, 316 to 1000 nM and “D (Category D: ≥6.5)”.
The matching figures for `CCc1c(C#N)c(SC(C(N)=O)c2ccccc2)nc(N2CCC(NC)C(F)C2)c1C#N` (centres unmarked) [Example 507, 2((3,5-dicyano-4-ethyl-6-(3-fluoro-4-(methylamino)piperidin-1-yl)pyridin-2-yl)thio)-2-phenylacetamide]: less than 316 nM and “D (Category D: ≥6.5)”.
With `CCc1c(C#N)c(SC(C(N)=O)c2ccccc2)nc(N2CCC(N)C(F)(F)C2)c1C#N` (centres unmarked) [Example 382, 2-((6-(4-Amino-3,3-difluoropiperidin-1-yl)-3,5-dicyano-4-ethylpyridin-2-yl)thio)-2-phenylacetamide], in test [1], the EC50 is less than 316 nM. In addition, the “DNMT1 BioChemical (pIC50 category)” value in test [2] (setting [3]) was “D (Category D: ≥6.5)”.
As to `CCc1c(C#N)c(SC(C(N)=O)c2ccc(F)cc2)nc(N2CC[C@H](O)C2)c1C#N` (stereo partly drawn) [Example 427, 2-((3,5-dicyano-4-ethyl-6-((S)-3-hydroxypyrrolidin-1-yl)pyridin-2-yl)thio)-2-(4-fluorophenyl) acetamide], the EC50 in test [1] was 316 to 1000 nM. Moreover, in test [2] (setting [3]), the “DNMT1 BioChemical (pIC50 category)” value is “D (Category D: ≥6.5)”.
For the compound `CCc1c(C#N)c(SC(C(N)=O)c2ccccc2)nc(N2CCC(N3CCC[C@@H]3C)CC2)c1C#N` (stereo partly drawn) [Example 453, 2-((3,5-dicyano-4-ethyl-6-(4-((S)-2-methylpyrrolidin-1-yl)piperidin-1-yl)pyridin-2-yl)thio)-2-phenylacetamide], the EC50 in test [1] was less than 316 nM. In addition, the “DNMT1 BioChemical (pIC50 category)” value in test [2] (setting [3]) is listed as “D (Category D: ≥6.5)”.
For `CCc1c(C#N)c(SCc2ccc3[nH]ccc3c2)nc(N2CCC(N3CCCC3)CC2)c1C#N` [Example 344, 2-(((1H-Indol-5-yl)methyl)thio)-4-ethyl-6-(4-(pyrrolidin-1-yl)piperidin-1-yl)pyridine-3,5-dicarbonitrile], the EC50 in test [1] is 1000 to 31600 nM. The IC50 in test [2] (setting [4]) was 316 to 1000 nM.
With `CCc1c(C#N)c(SC(C(N)=O)c2ccccc2)nc(N2CC(CN)C2)c1C#N` (centres unmarked) [Example 671, 2-((6-(3-(aminomethyl)azetidin-1-yl)-3,5-dicyano-4-ethylpyridin-2-yl)thio)-2-phenylacetamide], in test [1], the EC50 was less than 316 nM. Besides, the “DNMT1 BioChemical (pIC50 category)” value in test [2] (setting [3]) is “D (Category D: ≥6.5)”.
The like results for `CCc1c(C#N)c(SC(C(N)=O)c2ccccc2)nc(N(C)CC(=O)NCC2(CO)CC2)c1C#N` (centres unmarked) [Example 673, 2-((6-((2-amino-2-oxo-1-phenylethyl)thio)-3,5-dicyano-4-ethylpyridin-2-yl)(methyl)amino)-N-((1-(hydroxymethyl)cyclopropyl)methyl)acetamide] were, in that order, less than 316 nM and “D (Category D: ≥6.5)”.
The like results for `CCc1c(C#N)c(SC(C(N)=O)c2ccccc2)nc(N(C)CCN(C)C)c1C#N` (centres unmarked) [Example 493, 2-((3,5-dicyano-6-((2-(dimethylamino)ethyl)(methyl)amino)-4-ethylpyridin-2-yl)thio)-2-phenylacetamide] were, in that order, 316 to 1000 nM and “D (Category D: ≥6.5)”.
The like results for `CN(CC(=O)N(CCO)CCO)c1nc(SC(C(N)=O)c2ccccc2)c(C#N)c(C2CC2)c1C#N` (centres unmarked) [Example 641, 2-((6-((2-amino-2-oxo-1-phenylethyl)thio)-3,5-dicyano-4-cyclopropylpyridin-2-yl)(methyl)amino)-N,N-bis(2-hydroxyethyl)acetamide] were, in that order, 1000 to 31600 nM and “D (Category D: ≥6.5)”.
Take `CCc1c(C#N)c(SC(C(N)=O)c2ccccc2)nc(N(C)CCNC(=O)C(C)(C)N)c1C#N` (centres unmarked) [Example 627, 2-amino-N-(2-((6-((2-amino-2-oxo-1-phenylethyl)thio)-3,5-dicyano-4-ethylpyridin-2-yl)(methyl)amino)ethyl)-2-methylpropanamide]: in test [1], the EC50 was less than 316 nM. The IC50 in test [2] (setting [4]) was less than 316 nM.
Regarding `CCc1c(C#N)c(SCc2ccc(CNC(=O)OC(C)(C)C)cc2)nc(N2CCCN(C)CC2)c1C#N` [Example 69, tert-Butyl 4-(((3,5-dicyano-4-ethyl-6-(4-methyl-1,4-diazepan-1-yl)pyridin-2-yl)thio)methyl)benzylcarbamate], in test [1], the EC50 was more than 31600 nM. Further, the IC50 was 1000 to 31600 nM in test [2] (setting [4]) and not below 1000 nM in test [2] (setting [5]).
Turning to `CCc1c(C#N)c(SCc2ccc(C#N)c(C)c2)nc(N2CCCN(C)CC2)c1C#N` [Example 295, 2-((4-Cyano-3-methylbenzyl)thio)-4-ethyl-6-(4-methyl-1,4-diazepan-1-yl)pyridine-3,5-dicarbonitrile], in test [1], the EC50 was more than 31600 nM. Also, the IC50 in test [2] (setting [4]) is 316 to 1000 nM.
Consider `CCc1c(C#N)c(SC(C(N)=O)c2ccccc2)nc(N2CCC(NC(=O)CCCN)CC2)c1C#N` (centres unmarked) [Example 629, 4-amino-N-(1-(6-((2-amino-2-oxo-1-phenylethyl)thio)-3,5-dicyano-4-ethylpyridin-2-yl)piperidin-4-yl)butanamide formate], for which the EC50 in test [1] was 1000 to 31600 nM. The “DNMT1 BioChemical (pIC50 category)” value in test [2] (setting [3]) is “D (Category D: ≥6.5)”.
The like results for `CCc1c(C#N)c(SCc2ccc(N(C)S(C)(=O)=O)cc2)nc(N2CCOC(CN(CC)CC)C2)c1C#N` (centres unmarked) [Example 580, N-(4-(((3,5-dicyano-6-(2-((diethylamino)methyl)morpholino)-4-ethylpyridin-2-yl)thio)methyl)phenyl)-N-methylmethanesulfonamide] were, in that order, less than 316 nM and “D (Category D: ≥6.5)”.
Take `CCc1c(C#N)c(SC(C(N)=O)c2ccccc2)nc(N(C)CCN2CCNCC2)c1C#N` (centres unmarked) [Example 167, 2-((3,5-Dicyano-4-ethyl-6-(methyl(2-(piperazin-1-yl)ethyl)amino)pyridin-2-yl)thio)-2-phenylacetamide]: the EC50 in test [1] was less than 316 nM. For the same compound, in test [2] (setting [3]), the “DNMT1 BioChemical (pIC50 category)” value is “D (Category D: ≥6.5)”.
Regarding `CCc1c(C#N)c(SC(C(N)=O)c2ccccc2)nc(N2CCN(C(=O)c3ccc(Br)cc3)CC2)c1C#N` (centres unmarked) [Example 310, 2-((6-(4-(4-Bromobenzoyl)piperazin-1-yl)-3,5-dicyano-4-ethylpyridin-2-yl)thio)-2-phenylacetamide], the EC50 in test [1] was less than 316 nM. In addition, the IC50 was 1000 to 31600 nM in test [2] (setting [4]); ≥ 1000 nM and 2000 nM in test [2] (setting [5]).
Take `CCc1c(C#N)c(SC(C(N)=O)c2ccc(F)cc2)nc(N2CCC[C@H](CN)C2)c1C#N` (stereo partly drawn) [Example 593, 2-((6-((R)-3-(aminomethyl)piperidin-1-yl)-3,5-dicyano-4-ethylpyridin-2-yl)thio)-2-(4-fluorophenyl)acetamide]: the EC50 in test [1] was less than 316 nM. In addition, the IC50 in test [2] (setting [4]) is less than 316 nM.

The values above are taken from US10975056B2 (GlaxoSmithKline Intellectual Property Development Limited, priority 2016, dated 2021).
